Data reported in patent publication US20240100044A1, “HYDROGEL COMPOSITION AND USES THEREOF IN THE PREVENTION AND/OR TREATMENT OF SKIN DAMAGE CAUSED BY RADIATION” (TARIAN PHARMA, priority 2021, published 2024).
Where two headings read alike, the source gives them in different places. Marks after values point to notes of the source that are not given here.

Tests used:
[1] = test system: alpha2-adrenergic receptors; details: cited from earlier work
radiation dermatitis = details: topical, applied up to 20 minutes before radiotherapy; cited from earlier work
[2] = Experimental: (§1) Saturated solutions were prepared by adding an excess of drug substance to various solvents and storing the samples in sealed containers for 24 hours at room temperature with continuous stirring.
(§2) After the equilibration period, samples were centrifuged or filtered and the brimonidine tartrate was quantified using the Thermo Scientific Dionex U3000 UPLC-UV system. The chromatographic conditions are described below: • Column: Sunfire C18 150 mm×4.6 mm, 3.5 μm • Temperature of column: 40° C. • Volume injected: […] • Flow: 0.8 ml/minute • UV detection: 246 nm
Saturated solutions were prepared, incubated and measured as described in Example 1.

[3] = remark: listed apart in the source
Experimental: as §1
The majority of the samples were stirred using a magnetic stirrer; however, in the case of viscous samples (such as pure glycerine), the samples were stirred using a rotary mixer. The speed of the rotary mixer was adjusted to ensure proper mixing of the sample, this generally involving slower rotation speeds.
as §2

[4] = value as per literature (ALPHAGAN Product Monograph), conditions not specified, cited from earlier work

In the case of `Brc1c(NC2=NCCN2)ccc2nccnc12` [Brimonidine], the “selectivity for alpha2-adrenergic receptors over alpha1-adrenergic receptors” value [1] is listed as 1,000 times.
For `CNC[C@H](O)c1ccc(O)c(O)c1` [epinephrine], the “patients showing a significant benefit” value (radiation dermatitis) is given as 50%.
In the case of brimonidine tartrate, the “active agent solubilised by non-volatile mixture compared to the aqueous mixture” value ([2]; PG/PEG-400/GLY/PVP (20:10:5:1) vs PG/PEG-400/GLY/PVP/water (20:10:5:1:40)) is reported as “approximately 22%”, the “saturation in the aqueous solvent phase of the primary formulation” value ([2]; concentration of 1% brimonidine tartrate) is reported as “around 30%” and the “saturation in the aqueous solvent phase of the primary formulation” value ([2]; concentration of 1.5% brimonidine tartrate) is reported as about 50%. The Max solubility ([2]; in PG/PEG-400 (20:10)) was 0.45 % (w/w), the Max solubility ([2]; in PG/PEG-400/GLY (20:10:5)) was 0.66 % (w/w) and the Max solubility ([2]; in PG/PEG-400/GLY/PVP (20:10:5:1)) was 0.72 % (w/w). For the same compound, the Max solubility ([2]; in PG/PEG-400/GLY/PVP/Water (20:10:5:1:40)) was 3.3 % (w/w), the Max solubility ([2]; in PG/PEG-400/PVP (20:10:1)) was 0.45 % (w/w) and the Max solubility ([3]; in ARLASOLVE DMI, 24 hours, room temperature) was 0.01 % (w/w). The Max solubility ([3]; in DMSO, visual solubility, UPLC-UV not performed) was >8.5*** % (w/w), the Max solubility ([3]; in GLUCAM E10, 24 hours, room temperature) was 0.72* % (w/w) and the Max solubility ([3]; in GLUCAM E20, 24 hours, room temperature) was 0.88* % (w/w). For the same compound, the Max solubility ([3]; in Glycerine (GLY, 20 ml scintillation flask)) was 1.61 % (w/w), the Max solubility ([3]; in Hexylene Glycol, 24 hours, room temperature) was 0.01 % (w/w) and the Max solubility ([3]; in Na Pyrrolidone Carboxylate (AJIDEW L50), 24 hours, room temperature) was 0.06 % (w/w). For the same compound, the Max solubility ([3]; in PEG-400, 24 hours, room temperature) was 0.10 % (w/w), the Max solubility ([3]; in Propylene Carbonate, 24 hours, room temperature) was 0.01** % (w/w) and the Max solubility ([3]; in Propylene glycol, measured value) was 0.56 % (w/w). For the same compound, the Max solubility ([3]; in TRANSCUTOL, 24 hours, room temperature) was 0.05 % (w/w), the Max solubility ([3]; in WATER, measured value) was 6.40 % (w/w) and the Max solubility ([4]; in Propylene glycol) was ~0.1**** % (w/w). The Max solubility ([4]; in WATER) was 3.4**** % (w/w).
